Measured values as given in the supplement of paper PMC6723410.

Columns and labels:
GUMC-403 [1] = assay: viability at highest tested concentration (max response) relative to DMSO (% of DMSO control); higher = less cytotoxic; details: library / dose series: MIPE library, 11-point 1:3 dilution, 48 h
Summary of the method: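 Viability at the highest tested concentration is given relative to vehicle control. For this, conditionally reprogrammed patient-derived GUMC-403 papilloma cells at 700/well in 1536-well plates were exposed to 23 nL of pinned compound for 48 h. Luminescence from CellTiter-Glo was read on a ViewLux and scaled between empty wells (0%) and vehicle wells (100%).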

GUMC-403 [2] = assay: AC50 for reduction of cell viability; higher = less potent; details: 48 h
[3] = library / dose series: MIPE library, 11-point 1:3 dilution
[4] = library / dose series: NPC library, 8-point 1:5 dilution

| SMILES | viability (GUMC-403 [1]; top concentration 46.1 µM) | AC50 for reduction of cell viability (GUMC-403 [2]; [4]) [µM] | also measured |
| --- | --- | --- | --- |
| CC(C)(C)c1cnc(CSc2cnc(NC(=O)C3CCNCC3)s2)o1 | 24.3 | – | AC50 for reduction of cell viability (GUMC-403 [2]; [3]): 0.469 µM |
| CC(=O)[C@]1(O)Cc2c(O)c3c(c(O)c2[C@@H](O[C@H]2C[C@H](N)[C@H](O)[C@H](C)O2)C1)C(=O)c1ccccc1C3=O | 7.29 | – | AC50 for reduction of cell viability (GUMC-403 [2]; [3]): 2.35 µM |
| C[C@H]1O[C@@H](O[C@H]2[C@@H](O)C[C@H](O[C@H]3[C@@H](O)C[C@H](O[C@H]4CC[C@@]5(C)[C@H](CC[C@@H]6[C@@H]5CC[C@]5(C)[C@@H](C7=CC(=O)OC7)CC[C@]65O)C4)O[C@@H]3C)O[C@@H]2C)C[C@H](O)[C@@H]1O | – | 0.237 | – |
| Cc1[nH]c2ccccc2c1CCNCc1ccc(/C=C/C(=O)NO)cc1 | 38.2 | – | AC50 for reduction of cell viability (GUMC-403 [2]; [3]): 2.64 µM |
| CN(C)c1ccc2nc3ccc(N(C)C)cc3[s+]c2c1 | 6.57 | – | AC50 for reduction of cell viability (GUMC-403 [2]; [3]): 7.43 µM |
| CNC(=O)c1ccc(N2C(=S)N(c3cnc(C#N)c(C(F)(F)F)c3)C(=O)C23CCC3)cc1F | 16.6 | – | AC50 for reduction of cell viability (GUMC-403 [2]; [3]): 13.2 µM |
| C[C@@H]1O[C@@H](O[C@@H]2C=C3CC[C@@H]4[C@H](CC[C@]5(C)[C@@H](c6ccc(=O)oc6)CC[C@]45O)[C@@]3(C)CC2)[C@H](O)[C@H](O)[C@H]1O | – | 0.0119 | – |
| CCCCCCCCCCCC[N+](C)(C)CCOc1ccccc1.[Br-] | – | 26.6 | – |
| CC(C)C[C@H](NC(=O)[C@H](CCc1ccccc1)NC(=O)CN1CCOCC1)C(=O)N[C@@H](Cc1ccccc1)C(=O)N[C@@H](CC(C)C)C(=O)[C@@]1(C)CO1 | – | 1.19 | – |
| C[C@H]1O[C@@H](O[C@H]2CC[C@@]3(C)[C@H](CC[C@@H]4[C@@H]3C[C@@H](O)[C@]3(C)[C@@H](C5=CC(=O)OC5)CC[C@]43O)C2)C[C@H](O)[C@@H]1O[C@H]1C[C@H](O)[C@H](O[C@H]2C[C@H](O)[C@H](O[C@@H]3O[C@H](CO)[C@@H](O)[C@H](O)[C@H]3O)[C@@H](C)O2)[C@@H](C)O1 | – | 0.106 | – |
| Cc1cc(N)c2cc(NC(=O)Nc3ccc4nc(C)cc(N)c4c3)ccc2n1.Cl.Cl | – | 3.76 | – |
| COc1cccc2c1C(=O)c1c(O)c3c(c(O)c1C2=O)C[C@@](O)(C(=O)CO)CC3OC1CC(N2CCOC(OC)C2)C(O)C(C)O1 (stereo not given in full) | – | 0.0211 | – |
| CC[P](CC)(CC)=[Au][S][C@@H]1O[C@H](COC(C)=O)[C@@H](OC(C)=O)[C@H](OC(C)=O)[C@H]1OC(C)=O | – | – | AC50 for reduction of cell viability (GUMC-403 [2]; [3]): 9.35 µM |
| CCN(CC)CCCC(C)Nc1c2ccc(Cl)cc2nc2ccc(OC)cc12.Cl.Cl.O.O (stereo not given) | – | 21.1 | – |
| C/C(C)=C\CNc3ncnc1c3ncn1[C@@H]2O[C@H](CO)[C@@H](O)[C@H]2O | – | 9.44 | – |
| C#Cc1cccc(Nc2ncnc3cc(OCCOC)c(OCCOC)cc23)c1 | – | 0.106 | – |
| C=C[C@@]1(C)CC(=O)[C@]2(O)[C@@]3(C)[C@@H](O)CCC(C)(C)[C@@H]3[C@H](O)[C@H](OC(C)=O)[C@@]2(C)O1 | – | 1.68 | – |
| O=C1NCCN1CCN1CCC(c2cn(-c3ccc(F)cc3)c3ccc(Cl)cc23)CC1 | – | 2.66 | – |
| CN(C)C(=S)SC(=S)N(C)C | – | 5.31 | – |
| Oc1c(Cl)cc(Cl)c(Cl)c1Cc1c(O)c(Cl)cc(Cl)c1Cl | – | 16.8 | – |
| CCN(CC)CCNc1ccc(CO)c2sc3ccccc3c(=O)c12 | – | 26.6 | – |
| CC(O)C(=O)O.CCOc1ccc2nc3cc(N)ccc3c(N)c2c1.O | – | 18.8 | – |
| CO[C@@]12[C@H](COC(N)=O)C3=C(C(=O)C(C)=C(N)C3=O)N1C[C@@H]1N[C@@H]12 | – | 16.8 | – |
| CN(C)c1ccc2nc3ccc(N(C)C)cc3[s+]c2c1.[Cl-] | – | 26.6 | – |
| O=c1[nH]c2ccccc2n1C1CCN(CCCC(c2ccc(F)cc2)c2ccc(F)cc2)CC1 | – | 2.66 | – |

| SMILES | viability (GUMC-403 [1]; top concentration 46.1 µM) | AC50 for reduction of cell viability (GUMC-403 [2]; [4]) [µM] | also measured |
| --- | --- | --- | --- |
| Cc1nc(Nc2ncc(C(=O)Nc3c(C)cccc3Cl)s2)cc(N2CCN(CCO)CC2)n1 | – | 0.0841 | – |
| CCCCC(CC)CNC(=N)NC(=N)NCCCCCCNC(=N)NC(=N)NCC(CC)CCCC.Cl.Cl (stereo not given) | – | 2.66 | – |
| Cc1cc2nc3ccc(N(C)C)cc3[s+]c2cc1N.[Cl-] | – | 18.8 | – |
| CCCCCCCCCCCCCC[N+](C)(C)C.[Br-] | – | 26.6 | – |
| CCN1C(=CC=Cc2ccc3ccccc3[n+]2CC)C=Cc2ccccc21.[I-] | – | 2.66 | – |
| COc1cccc2c1C(=O)c1c(O)c3c(c(O)c1C2=O)C[C@@](O)(C(=O)CO)C[C@@H]3O[C@H]1C[C@H](N)[C@H](O)[C@H](C)O1.Cl | – | 11.9 | – |
| COc1cc2ncnc(Nc3ccc(F)c(Cl)c3)c2cc1OCCCN1CCOCC1 | – | 1.19 | – |
| CC[n+]1c(-c2ccccc2)c2cc(N)ccc2c2ccc(N)cc21.[Br-] | – | 9.44 | – |
| CCOC(=O)[C@@](C)(N)Cc1ccc(O)c(O)c1.Cl | – | 6.68 | – |
| C[n+]1cc2c3c(ccc2c2ccc4cc5c(cc4c21)OCO5)OCO3 | – | 1.3 | – |
| [Cl-].C/[N+](C)=C1\C=C\C(C=C1)=C(/c2ccc(cc2)N(C)C)c3ccc(cc3)N(C)C | – | 13.3 | – |
| CC[C@H](O)C(C[C@H](C)N(C)C)(c1ccccc1)c1ccccc1.Cl | – | 44.1 | – |
| C[C@@]12C(=O)OC(=O)[C@]1(C)C1CCC2O1 | – | 3.35 | – |
| CC(=O)Oc1ccc(C2(c3ccc(OC(C)=O)cc3)C(=O)Nc3ccccc32)cc1 | – | 0.841 | – |
| CCCCCCCCCCCCCCCC[N+](C)(C)C.[Br-] | – | 21.1 | – |
| CCCCCNC(=N)N/N=C/c1c[nH]c2ccc(OC)cc12 | – | 18.8 | – |
| Cc1cc(OCCOCC[N+](C)(C)Cc2ccccc2)ccc1C(C)(C)CC(C)(C)C.[Cl-] | – | 23.7 | – |
| O=C(CCCN1CC=C(n2c(=O)[nH]c3ccccc32)CC1)c1ccc(F)cc1 | – | 18.8 | – |
| COc1cccc2c1C(=O)c1c(O)c3c(c(O)c1C2=O)C[C@@](O)(C(C)=O)C[C@@H]3O[C@H]1C[C@H](N)[C@H](O)[C@H](C)O1 | – | 2.66 | – |
| C[C@@H]1O[C@@H](O[C@H]2C[C@@H](O)[C@]3(CO)[C@H]4[C@H](O)C[C@]5(C)[C@@H](C6=CC(=O)OC6)CC[C@]5(O)[C@@H]4CC[C@]3(O)C2)[C@H](O)[C@H](O)[C@H]1O | – | 0.075 | – |
| N=C(N/N=C\c1ccc(Cl)cc1)N/N=C/c1ccc(Cl)cc1 | – | 8.41 | – |
| CC(C)(Cc1ccc2ccccc2c1)NC[C@@H](O)COc1cccc(Cl)c1C#N | 106 | – | – |
| CC(c1cc2ccccc2s1)N(O)C(N)=O (stereo not given) | 96.7 | – | – |
| NCCCC(O)(P(=O)(O)O)P(=O)(O)O.O.O.O.[Na+] | 111 | – | – |
| COCCOc1ccc2c(c1)ncn2-c1ccc2cccc(N3CCC(N)CC3)c2n1 | 87 | – | – |

| SMILES | viability (GUMC-403 [1]; top concentration 46.1 µM) | AC50 for reduction of cell viability (GUMC-403 [2]; [4]) [µM] | also measured |
| --- | --- | --- | --- |
| N/C(=N\C(=O)c1nc(Cl)c(N)nc1N)NCc1ccccc1 | 130 | – | – |
| NC(=O)Cc1cccc(C(=O)c2ccccc2)c1N | 112 | – | – |
| CN(C)C(=S)SSC(=S)N(C)C | – | 18.8 | – |
| COc1cc2c(cc1-c1c(C)noc1C)ncc1[nH]c(=O)n([C@H](C)c3ccccn3)c12 | 69.1 | – | – |
| CO/N=C(/C(=O)N[C@@H]1C(=O)N2C(C(=O)O)=C(CSC(=O)c3ccco3)CS[C@H]12)c1csc(N)n1 | 172 | – | – |
| CC(=O)Oc1ccccc1C(=O)Nc1ncc([N+](=O)[O-])s1 | – | – | viability (GUMC-403 [1]; top concentration 92.2 µM): 82.2 |
| CC[C@H](NC(C)C)[C@H](O)c1ccc(O)c2[nH]c(=O)ccc12 | 123 | – | – |
| Fc1ccc([C@@H]2CCNC[C@H]2COc2ccc3c(c2)OCO3)cc1 | 97.2 | – | – |
| Clc1ccc(-c2nc3sccn3c2/C=N/OCc2ccc(Cl)c(Cl)c2)cc1 | 85.8 | – | – |
| CNC(=O)[C@H](CC/1=C/N=C\2/C=C\C\C=C12)NC(=O)[C@H](CC(C)C)CC(=O)NO | 66.4 | – | – |
| O=C(c1ccc(C(=O)N2CCC(N3CCCC3)CC2)c(Nc2ccccc2)c1)N1CCC(N2CCCC2)CC1 | 109 | – | – |
| CC[C@H](C)C(=O)O[C@H]1C[C@@H](C)\C=C2\C=C/[C@H](C)[C@H](CC[C@@H]3C[C@@H](O)CC(=O)O3)[C@@H]12 | 61.5 | – | – |
| Nc1ccc(C(=O)Nc2cccc(-c3nc(N4CCOCC4)c4oc5ncccc5c4n3)c2)cn1 | 101 | – | – |
| CC/1=C/N([C@@H]2C[C@@H](O)[C@H](CO)O2)C(=O)NC1=O | 117 | – | – |
| Cc1nc(-c2ccc(-c3ccc(C(=O)N4CCc5cc6c(cc54)C4(CCN(C)CC4)CO6)cc3)c(C)c2)no1 | 124 | – | – |
| ClC1=CC=C2N/C3=N/C(=O)CN3CC2=C1Cl | 94.9 | – | – |
| CCOC(=O)[C@H](CCc1ccccc1)N[C@H]1CS[C@H](c2cccs2)CN(CC(=O)O)C1=O.Cl | 118 | – | – |
| CCOC(=O)N1CCN(/[N+]([O-])=N/Oc2ccc([N+](=O)[O-])cc2C#N)CC1 | 92.1 | – | – |
| O=C1Nc2ccc(I)cc2/C1=C/c1cc(Br)c(O)c(Br)c1 | 146 | – | – |
| O=C(N[C@@H](c1ccccc1)[C@@H]1CCCCN1)c1cccc(C(F)(F)F)c1Cl | 99 | – | – |
| NC[C@H]1O[C@H](O[C@H]2[C@H](O)[C@@H](O[C@H]3O[C@H](CO)[C@@H](O)[C@H](N)[C@H]3O)[C@H](N)C[C@@H]2N)[C@H](N)C[C@@H]1O | 125 | – | – |
| O=C(O)c1ccccc1C(=O)Nc1ccc(-c2ccccc2)cc1 | 111 | – | – |
| CC[C@]12CC[C@H]3[C@@H](CCC/4=C/C(=O)CC[C@H]34)[C@@H]1CC[C@@]2(O)C#C | 93.2 | – | – |
| Clc1ccc(CCC(Cn2ccnc2)Sc2c(Cl)cccc2Cl)cc1 (stereo not given) | 97 | – | – |
| OC(CCN1CCCCC1)(C2CC\3CC2\C=C3)C4=CC=CC=C4 (stereo not given) | 136 | – | – |
